Values joined by “and” are separate entries in the source; they are usually repeats but may differ in a detail not shown here. Identical values can stand only once. Like-named read-outs stand apart in the source and are kept apart here.
Legend:
[1] = test system: F. hepatica newly excysted juveniles (NEJs), Italian strain; test: Ex vivo screen against newly excysted juveniles (NEJs), phenotype and motility scoring; type: cell-based, Fasciola hepatica; conditions: 10 µM; for Average phenotype of 25 NEJs with 95% CI, 24 hours / Average phenotype of 25 NEJs with 95% CI, 48 hours / Average phenotype of 25 NEJs with 95% CI, 72 hours: ultrastructure score 1 normal to 6 dead or dissolved; for Activity against NEJs (first screen), in words: 72 h co-culture
Outline: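 Newly excysted juveniles of the Italian strain of F. hepatica were obtained by excysting metacercariae and exposed ex vivo to test compounds at 10 μM final concentration in 0.1% DMSO. Controls were 0.1% DMSO (negative) and 10 μM TCBZ in 0.1% DMSO (positive). Motility was scored from 1 (good/normal) to 5 (no movement), and ultrastructural phenotype changes were scored with an established matrix.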

[2] = test system: Madin–Darby bovine kidney (MDBK) cells; test: MTT cell viability assay on MDBK cells; type: cell-based; conditions: MDBK cells, MTT, 24 h exposure; read-out: CC50 with 95% CI on MDBK cells (cytotoxicity)
Experimental: (§1) MTT cell viability assays were performed on Madin–Darby bovine kidney (MDBK cells) for the five selected hederagenin derivatives (MC014, MC035, MC042, MC055 and MC062) using final concentrations of 100 μM, 75 μM, 50 μM, 25 μM, 10 μM, 5 μM and 1 μM (in 1% DMSO). Negative (1% v/v Triton X-100, Sigma-Aldrich, UK) and positive (1% v/v DMSO or media only) controls were included. The protocol was followed as previously described. Absolute EC50 values were calculated from the corrected absorbance of replicates by non-linear regression, after log transformation of concentrations and data normalization (where DMSO values represents 0% inhibition and TX-100 values represent 100% inhibition) using GrapPad Prism 8.

[3] = test system: immature F. hepatica flukes (Italian strain); test: Ex vivo motility assay on immature liver flukes (Italian strain), single concentration and dose response; type: cell-based, Fasciola hepatica; conditions: for Average motility of 4 parasites with 95% CI at 24 hour time point: score 1 normal to 5 no movement or death; for Effect on immature fluke motility, in words: by 72 h
Experimental: The six selected compounds (at 40 µM in 0.4% DMSO) were evaluated on immature flukes (n = 4/condition) at 24, 48 and 72 h (Table S4). The protocol for culturing and scoring (motility) of these life stages have been previously described. Due to restricted numbers of immature worms, a dose response assay was conducted only for MC042. Here, immature worms (n = 2/concentration tested) were screened against descending concentrations of MC042 (40 µM, 13.3 µM and 4.4 µM); motility scores were recorded at 24, 48 and 72 h (Table S5). The scoring pattern used is identical to that described for NEJs.

[4] = test system: wild strain adult F. hepatica; test: Ex vivo motility assay on adult liver flukes (wild strain); type: cell-based, Fasciola hepatica; conditions: 40 µM; for Effect on wild strain adult fluke motility, in words: 72 h; for Average motility of 4 parasites with 95% CI at 72 hour time point: wild strain adult flukes, score 1 good/normal to 6 no movement or dead
Experimental: Due to the high number of active molecules and a shortage of Italian strain adult liver flukes, the eleven hit compounds were screened for 72 h at 40 µM (in 0.4% DMSO) on wild strain adult F. hepatica (n = 4/condition) of unknown provenance (Table S3). The protocol for culturing and scoring (motility) the activity of these compounds was previously described (1—good/normal; 2—moderate; 3—resting (less than 10 s pulses of body and head), 4—apathetic (less than 2 s pulses of body and head), 5—paralysis and 6–no movement or dead worms). Six compounds were deemed active in these assays and were selected for further screening.

[5] = test system: adult F. hepatica flukes (Italian strain); test: Ex vivo dose response motility assay on adult liver flukes (Italian strain); type: cell-based, Fasciola hepatica; conditions: for Average motility of 3 parasites treated with 4.4 µM, 24 hours / Average motility of 3 parasites treated with 4.4 µM, 48 hours / Average motility of 3 parasites treated with 4.4 µM, 72 hours / Average motility of 3 parasites treated with 13.3 µM, 24 hours / Average motility of 3 parasites treated with 13.3 µM, 48 hours / Average motility of 3 parasites treated with 13.3 µM, 72 hours / Average motility of 3 parasites treated with 40 µM, 24 hours / Average motility of 3 parasites treated with 40 µM, 48 hours / Average motility of 3 parasites treated with 40 µM, 72 hours: adult flukes Italian strain, score 1 to 6; for EC50: adult flukes, motility; for Effect on adult fluke (Italian strain) movement, in words: dose response, MC042 statement at 40 μM after 72 h
Experimental: The collection, ex vivo culturing and screening of adult liver fluke (Italian strain; n = 3/condition) was previously described. Dose response assays (40 µM, 13.3 µM and 4.4 µM) were conducted for MC014, MC042, MC035, MC055 and MC062 with motility scores recorded at 24, 48 and 72 h (Table S6).

[6] = MTT cell viability assay on MDBK cells; type: cell-based, bovine; conditions: bovine, MDBK cells (Madin–Darby bovine kidney); MDBK cells, MTT, 24 h exposure; read-out: CC50 with 95% CI on MDBK cells (cytotoxicity)
Experimental: as §1

[7] = motility score 1 good/normal to 5 no movement
[8] = 40 µM, 48 h, immature flukes, score 1 to 5
[9] = 40 µM, 72 h, immature flukes, score 1 to 5

Row | Compound | Average motility of 25 NEJs with 95% CI, 24 hours [1, 7] | Average phenotype of 25 NEJs with 95% CI, 24 hours [1] | Average motility of 25 NEJs with 95% CI, 48 hours [1, 7] | Average phenotype of 25 NEJs with 95% CI, 48 hours [1] | Average phenotype of 25 NEJs with 95% CI, 72 hours ([1]; 72 h) | Activity against NEJs (first screen), in words [1] | Average motility of 4 parasites with 95% CI at 24 hour time point ([3]; 40 µM, 24 h, immature flukes) | Average motility of 4 parasites with 95% CI at 48 hour time point [3, 8] | Average motility of 4 parasites with 95% CI at 72 hour time point [3, 9] | Effect on immature fluke motility, in words ([3]; 40 µM) | Effect on wild strain adult fluke motility, in words [4] | Average motility of 4 parasites with 95% CI at 72 hour time point [4] | Average motility of 3 parasites treated with 4.4 µM, 24 hours ([5]; 24 h) | Average motility of 3 parasites treated with 4.4 µM, 48 hours [5] | Average motility of 3 parasites treated with 4.4 µM, 72 hours ([5]; 72 h) | Average motility of 3 parasites treated with 13.3 µM, 24 hours ([5]; 24 h) | Average motility of 3 parasites treated with 13.3 µM, 48 hours [5] | Average motility of 3 parasites treated with 13.3 µM, 72 hours ([5]; 72 h) | Average motility of 3 parasites treated with 40 µM, 24 hours ([5]; 24 h) | Average motility of 3 parasites treated with 40 µM, 48 hours [5] | other results
1 | CC1(C)CC[C@]2(NC(=O)N3CCNCC3)CC[C@]3(C)C(=CCC4[C@@]5(C)CCC6OC(C)(C)OC[C@@]6(C)C5CC[C@]43C)C2C1 (stereo partly drawn) [MC035, N-((4aR,6aR,6bS,8aS,14bR)-2,2,4a,6a,6b,11,11,14b-Octamethyl-4a,5,6,6a,6b,7,8,9,10,11,12,12a,14,14a, 14b,15,16,16a-octadecahydro-4H-piceno[3,4-d][1,3]dioxin-8a(4bH)-yl)piper-azine-1-carboxamide] | 5.00 (5.0;5.0) | 6.00 (6.0;6.0) | 5.00 (5.0;5.0) | 6.00 (6.0;6.0) | 6.00 (6.0;6.0) | maximal alterations to both phenotype/ultrastructure and motility | 5.00 (5.0;5.0) | 5.00 (5.0;5.0) | 5.00 (5.0;5.0) | paralyzed the assayed immature flukes | partial paralysis | 5.75 (5.2; 6.2) | 1.00 (1.0;1.0) | 1.00 (1.0;1.0) | 1.00 (1.0;1.0) | 1.00 (1.0;1.0) | 1.00 (1.0;1.0) | 3.66 (2.3; 4.9) | 2.33 (1.6;2.9) | 4.33 (3.6;4.9) | CC50 [2]: 79.8 µM; Average motility of 3 parasites treated with 40 µM, 72 hours ([5]; 72 h): 5.00 (3.8;6.1); EC50 ([5]; 72 h, read-out: EC50 with 95% CI on Adult Flukes (motility), 72 hour): 14.3 µM; Effect on adult fluke (Italian strain) movement, in words [5]: Decreased movement
2 | CC1(C)CC[C@]2(NC(=O)N3CCOCC3)CC[C@]3(C)C(=CCC4[C@@]5(C)CC[C@@H]6OC(C)(C)OC[C@@]6(C)C5CC[C@]43C)C2C1 (stereo partly drawn) [MC042, N-((4aR,6aR,6bS,8aS,14bR,16aS)-2,2,4a,6a,6b,11,11,14b-Octamethyl-4a,5,6,6a,6b,7,8,9,10,11,12,12a, 14,14a,14b,15,16,16a-octadecahydro-4H-piceno[3,4-d][1,3]dioxin-8a(4bH)-yl)-morpholine-4-carboxamide] | 5.00 (5.0;5.0) | 6.00 (6.0;6.0) | 5.00 (5.0;5.0) | 6.00 (6.0;6.0) | 6.00 (6.0;6.0) | maximal alterations to both phenotype/ultrastructure and motility | 4.75 (4.2;5.2) | 5.00 (5.0;5.0) | 5.00 (5.0;5.0) | paralyzed the assayed immature flukes | no motility after 72 h | 6.00 (6.0;6.0) | 1.00 (1.0;1.0) | 2.00 (2.0; 2.0) | 3.00 (3.0; 3.0) | 3.66 (3.0;4.3) | 4.00(4.0; 4.0) | 4.00 (4.0; 4.0) | 5.33 (4.6;5.9) | 5.66 (5.0;6.3) | Average motility of 25 NEJs with 95% CI, 72 hours ([1]; 72 h, motility score 1 good/normal to 5 no movement): 5.00 (5.0;5.0); CC50 at 24 h [6]: 47.5 µM; Average motility of 2 parasites treated with 4.4 µM, 24 hours ([3]; 4.4 µM, 24 h, immature flukes, dose response, score 1 to 5): 4.00 (4.0;4.0); Average motility of 2 parasites treated with 4.4 µM, 48 hours ([3]; 4.4 µM, 48 h, immature flukes, dose response, score 1 to 5): 5.00 (5.0; 5.0); Average motility of 2 parasites treated with 4.4 µM, 72 hours ([3]; 4.4 µM, 72 h, immature flukes, dose response, score 1 to 5): 5.00 (5.0; 5.0); Average motility of 2 parasites treated with 13.3 µM, 24 hours ([3]; 13.3 µM, 24 h, immature flukes, dose response, score 1 to 5): 4.00 (4.0;4.0); Average motility of 2 parasites treated with 13.3 µM, 48 hours ([3]; 13.3 µM, 48 h, immature flukes, dose response, score 1 to 5): 5.00 (5.0; 5.0); Average motility of 2 parasites treated with 13.3 µM, 72 hours ([3]; 13.3 µM, 72 h, immature flukes, dose response, score 1 to 5): 5.00 (5.0; 5.0); Average motility of 2 parasites treated with 40 µM, 24 hours ([3]; 40 µM, 24 h, immature flukes, dose response, score 1 to 5): 5.00 (5.0;5.0); Average motility of 2 parasites treated with 40 µM, 48 hours ([3]; 40 µM, 48 h, immature flukes, dose response, score 1 to 5): 5.00 (5.0;5.0); Average motility of 2 parasites treated with 40 µM, 72 hours ([3]; 40 µM, 72 h, immature flukes, dose response, score 1 to 5): 5.00 (5.0,5.0); Selectivity Index (SI) on Immature Flukes SI=CC50/EC50, 24 hour ([3]; CC50 in MDBK cells / EC50 immature flukes, 24 h): 44 and 44.37; EC50 ([3]; Fasciola hepatica, immature flukes, motility, 24 h exposure, read-out: EC50 with 95% CI on Immature Flukes (motility), 24 hour): 1.07 µM; Effect on adult fluke (Italian strain) movement at lower concentrations, in words ([5]; 13.3 μM and 4.4 μM, after 72 h, compared to DMSO 0.4%): impaired movement; Average motility of 3 parasites treated with 40 µM, 72 hours ([5]; 72 h): 5.66 (5.0,6.3); Selectivity Index (SI) on Adult Flukes SI=CC50/EC50, 72 hour ([5]; CC50 in MDBK cells (24 h) / EC50 adult flukes 72 h): 6.64; Selectivity Index (SI) on Adult Flukes SI=CC50/EC50, 24 hour ([5]; CC50 in MDBK cells / EC50 adult flukes, 24 h): 4 and 3.64; EC50 ([5]; Fasciola hepatica, 24 h exposure, read-out: EC50 with 95% CI on Adult Flukes (motility), 24 hour): 13 µM; EC50 ([5]; Fasciola hepatica, 72 h, read-out: EC50 with 95% CI on Adult Flukes (motility), 72 hour): 7.15 µM; Effect on adult fluke (Italian strain) movement, in words [5]: two out of three adult flukes were completely immobilized
